Experimental data taken from US8461328B2, “Tricyclic heterocyclic compounds, compositions and methods of use thereof” (Genentech, Inc., priority 2010, dated 2013).
Where a name gives a salt, the structure may show the parent alone. Read-outs that look alike come from different tables or passages of the source.

Assays:
Assay type in all cases: biochemical
[1] = molecular target: T1, JAK2 (Homo sapiens, UniProt O60674); assay: JAK2 inhibition (Table 4); details: read-out: JAK2 Ki
T1 construct: made in house; host or cells: SF9 insect cells (baculovirus)

[2] = molecular target: T2, TYK2 (Homo sapiens, UniProt P29597); assay: TYK2 inhibition (Table 4)
T2 construct: made in house; host or cells: SF9 insect cells (baculovirus)
T2 sequence (P29597 873-1187): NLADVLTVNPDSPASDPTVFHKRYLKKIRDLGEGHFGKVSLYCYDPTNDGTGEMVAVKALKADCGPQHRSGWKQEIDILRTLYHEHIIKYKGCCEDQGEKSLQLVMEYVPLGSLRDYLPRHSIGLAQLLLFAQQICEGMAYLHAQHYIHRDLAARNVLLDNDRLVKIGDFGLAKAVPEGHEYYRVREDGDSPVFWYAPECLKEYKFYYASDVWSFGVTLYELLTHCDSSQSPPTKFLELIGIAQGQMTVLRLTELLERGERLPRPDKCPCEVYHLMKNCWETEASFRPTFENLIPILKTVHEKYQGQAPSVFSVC

[3] = molecular target: T3, JAK1 (Homo sapiens, UniProt P23458); assay: JAK1 inhibition (Table 4)
T3 construct: made in house; host or cells: SF9 insect cells (baculovirus)

[4] = molecular target: T4, JAK3 (Homo sapiens, UniProt P52333); assay: JAK3 inhibition (Table 4)
T4 construct: made in house; host or cells: SF9 insect cells (baculovirus)
T4 sequence (P52333 783-1124): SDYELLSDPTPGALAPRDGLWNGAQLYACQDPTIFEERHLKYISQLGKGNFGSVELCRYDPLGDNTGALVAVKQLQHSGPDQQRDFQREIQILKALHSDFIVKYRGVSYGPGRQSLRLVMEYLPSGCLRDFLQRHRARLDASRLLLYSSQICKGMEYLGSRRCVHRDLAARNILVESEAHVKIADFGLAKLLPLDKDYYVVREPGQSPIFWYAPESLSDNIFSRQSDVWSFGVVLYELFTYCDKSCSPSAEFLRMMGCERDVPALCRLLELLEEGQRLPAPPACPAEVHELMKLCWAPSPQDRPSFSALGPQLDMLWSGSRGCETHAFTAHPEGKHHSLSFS

T1 sequence (O60674 812-1132): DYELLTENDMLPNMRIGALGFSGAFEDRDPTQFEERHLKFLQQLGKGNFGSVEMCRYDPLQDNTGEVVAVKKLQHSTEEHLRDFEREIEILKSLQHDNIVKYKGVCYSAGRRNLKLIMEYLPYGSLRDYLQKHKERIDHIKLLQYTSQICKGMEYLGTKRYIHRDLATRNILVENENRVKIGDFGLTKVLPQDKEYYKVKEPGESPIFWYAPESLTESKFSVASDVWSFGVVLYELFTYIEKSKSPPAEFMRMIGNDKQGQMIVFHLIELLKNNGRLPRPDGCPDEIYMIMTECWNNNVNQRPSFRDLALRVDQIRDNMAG
T3 sequence (P23458 852-1154): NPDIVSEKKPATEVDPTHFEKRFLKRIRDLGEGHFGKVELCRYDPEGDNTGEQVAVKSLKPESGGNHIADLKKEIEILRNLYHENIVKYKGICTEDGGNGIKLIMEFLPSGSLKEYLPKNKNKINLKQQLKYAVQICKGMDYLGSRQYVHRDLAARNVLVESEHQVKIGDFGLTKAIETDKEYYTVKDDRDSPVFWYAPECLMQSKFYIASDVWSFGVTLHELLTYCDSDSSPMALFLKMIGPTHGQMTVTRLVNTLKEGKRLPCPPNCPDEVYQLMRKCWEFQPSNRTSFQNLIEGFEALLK

Row | Molecule | Ki [1] | Ki [2] | Ki ([3]; read-out: JAK1 Ki) | Ki ([4]; read-out: JAK3 Ki) | Ki ([3]; JAK1 Ki) | Ki ([4]; JAK3 Ki)
1 | 3-[6-benzenesulfonyl-2-((R)-1-hydroxy-ethyl]-6H-1,3,5,6-tetraaza-as-indecen-1-yl}-cyclohexanecarbonitrile [Example 742] | 66.2 nM | 11.1 nM | 9.51 nM | 36.6 nM |  | 
2 | Cc1nc2cnc3[nH]ccc3c2n1C1CCCCC1C (mixture of isomers) [Example 516, 2-Methyl-1-(2-methyl-cyclohexyl)-1,6-dihydro-1,3,5,6-tetraaza-as-indacene] | 2.78 nM | 7.58 nM | 2.17 nM | 5.35 nM |  | 
3 | N#CCC1CCC(n2c(CO)nc3cnc4[nH]ccc4c32)CC1 (mixture of isomers) [Example 643, [4-(2-Hydroxymethyl-6H-1,2,3,5,6-tetraaza-as-indacen-1-yl)-cyclohexyl]-acetonitrile] | 0.96 nM | 0.51 nM |  |  | 0.27 nM | 5.26 nM
4 | C[C@@H](O)c1nc2cnc3[nH]ccc3c2n1C1CCC(CS(C)(=O)=O)CC1 (mixture of isomers) [Example 649, (R)-1-[1-(4-Methanesulfonylmethyl-cyclohexyl)-1,6-dihydro-1,2,3,5,6-tetraaza-as-indacen-2-yl]-ethanol] | 38.6 nM | 38.4 nM | 4.82 nM | 68.6 nM |  | 
5 | O=C1CC2CCC(n3cnc4cnc5[nH]ccc5c43)CC2N1 (racemic) [Example 111, 6-(6H-1,2,3,5,6-Tetraaza-as-indacen-1-yl)-octahydro-indol-2-one] | 10.4 nM | 21 nM | 4.87 nM | 26.5 nM |  | 
6 | CCC(C)Cc1nc2cnc3[nH]ccc3c2n1C1CCN(CCC#N)CC1 (racemic) [Example 122, 3-{4-[2-(2-Methyl-butyl)-6H-1,2,3,5,6-tetraaza-as-indacen-1-yl]-piperidin-1-yl}-propionitrile] | 281 nM | 1050 nM | 62.3 nM | 83.4 nM |  | 
7 | COC(=O)CC(c1cccnc1)N1CCC(n2cnc3cnc4[nH]ccc4c32)CC1 (racemic) [Example 126, 3-pyridin-3-yl-3-[4-(6H-1,2,3,5,6-tetraaza-as-indacen-1-yl)-piperidin-1-yl]-propionic acid methyl ester] | 15.2 nM | 193 nM | 15.5 nM | 418 nM |  | 
8 | CC1CC(n2cnc3cnc4[nH]ccc4c32)CCN1Cc1ccccc1 (racemic) [Example 127, 1-(1-Benzyl-2-methyl-piperidin-4-yl)-1,6-dihydro-1,2,3,5,6-tetraaza-as-indacene] | 1.82 nM | 26.1 nM | 2.6 nM | 8.46 nM |  | 
9 | CC1CC(n2cnc3cnc4[nH]ccc4c32)CCN1Cc1ccccc1 (racemic) [Example 128, 1-(1-Benzyl-2-methyl-piperidin-4-yl)-1,6-dihydro-1,2,3,5,6-tetraaza-as-indacene] | 2.11 nM | 82.6 nM | 2.09 nM | 60.8 nM |  | 
10 | O=C1CC(n2cnc3cnc4[nH]ccc4c32)CCN1Cc1ccccc1 (racemic) [Example 129, 1-Benzyl-4-(6H-1,2,3,5,6-tetraaza-as-indacen-1-yl)-piperidin-2-one] | 57.2 nM | 312 nM | 43.8 nM | 535 nM |  | 
11 | O=C1CCC(n2cnc3cnc4[nH]ccc4c32)CN1 (racemic) [Example 130, 5-(6H-1,2,3,5,6-Tetraaza-as-indacen-1-yl)-piperidin-2-one] | 389 nM | 622 nM | 126 nM | 2280 nM |  | 
12 | O=C1CC(n2cnc3cnc4[nH]ccc4c32)CCN1 (racemic) [Example 133, 4-(6H-1,2,3,5,6-Tetraaza-as-indacen-1-yl)-piperidin-2-one] | 150 nM | 798 nM | 54.2 nM | 297 nM |  | 
13 | CC1CN(Cc2ccccc2)CCC1n1cnc2cnc3[nH]ccc3c21 (racemic) [Example 149, Racemic cis 1-(1-Benzyl-3-methyl-piperidin-4-yl)-1,6-dihydro-1,2,3,5,6-tetraaza-as-indacene] | 1.61 nM | 18.4 nM | 0.98 nM | 20.3 nM |  | 
14 | CC1CN(Cc2ccccc2)CCC1n1cnc2cnc3[nH]ccc3c21 (racemic) [Example 150, Racemic trans 1-(1-Benzyl-3-methyl-piperidin-4-yl)-1,6-dihydro-1,2,3,5,6-tetraaza-as-indacene dihydrochloride] | 11.9 nM | 292 nM | 4.17 nM | 17.7 nM |  | 
15 | Cc1nc2cnc3[nH]ccc3c2n1C1CCN(Cc2ccccc2)CC1C (racemic) [Example 151, Racemic 1-(1-benzyl-3-methyl-piperidin-4-yl)-2-methyl-1,6-dihydro-1,2,3,5,6-tetraaza-as-indacene dihydrochloride salt] | 2.27 nM | 31.2 nM | 1.78 nM | 13.5 nM |  | 
16 | CC(O)c1nc2cnc3[nH]ccc3c2n1C1CCN(Cc2cccc(C#N)c2)CC1 (racemic) [Example 156, Racemic 3-{4-[2-(1-Hydroxy-ethyl)-6H-1,2,3,5,6-tetraaza-as-indacen-1-yl]-piperidin-1-ylmethyl}-benzonitrile] | 16.3 nM | 209 nM | 2.13 nM | 84.6 nM |  | 
17 | CC(O)c1nc2cnc3[nH]ccc3c2n1C1CCN(Cc2ccccc2)CC1 (racemic) [Example 157, Racemic 1-[1-(1-Benzyl-piperidin-4-yl)-1,6-dihydro-1,2,3,5,6-tetraaza-as-indacen-2-yl]-ethanol] | 25.1 nM | 207 nM | 3.59 nM | 34 nM |  | 
18 | CC(O)c1nc2cnc3[nH]ccc3c2n1C1CCN(CCC#N)CC1 (racemic) [Example 158, Racemic 3-{4-[2-(1-Hydroxy-ethyl)-6H-1,2,3,5,6-tetraaza-as-indacen-1-yl]-piperidin-1-yl}-propionitrile] | 28.2 nM | 32.9 nM | 3.76 nM | 18.2 nM |  | 
19 | CC(C)NC(=O)C(C)c1nc2cnc3[nH]ccc3c2n1C1CCN(CCC#N)CC1 (racemic) [Example 172, Racemic 2-{1-[1-(2-Cyano-ethyl)-piperidin-4-yl]-1,6-dihydro-1,2,3,5,6-tetraaza-as-indacene-2-yl}-N-isopropyl-propionamide] | 251 nM | 2770 nM | 141 nM | 22.6 nM |  | 
20 | CC1CC(n2cnc3cnc4[nH]ccc4c32)CCN1 (racemic) [Example 229, 1-(2-Methyl-piperidin-4-yl)-1,6-dihydro-1,3,5,6-tetraaza-as-indacene] | 142 nM | 330 nM | 48.7 nM | 417 nM |  | 
21 | CC1CC(n2cnc3cnc4[nH]ccc4c32)CCN1 (racemic) [Example 230, 1-(2-Methyl-piperidin-4-yl)-1,6-dihydro-1,3,5,6-tetraaza-as-indacene] | 123 nM | 435 nM | 47.8 nM | 424 nM |  | 
22 | O=C(C1CC1F)N1CCC[C@@H](n2cnc3cnc4[nH]ccc4c32)C1 (mixture of isomers) [Example 235, (2-Fluoro-cyclopropyl)-[(R)-3-(6H-1,3,5,6-tetraaza-as-indacen-1-yl)-piperidin-1-yl]-methanone] | 6.56 nM | 17.9 nM | 4.37 nM | 42.6 nM |  | 
23 | CC(C)(C)OC(=O)N1CCCC1(C)C(=O)N1CCC(n2cnc3cnc4[nH]ccc4c32)CC1 (racemic) [Example 244, 2-Methyl-2-[4-(6H-1,3,5,6-tetraaza-as-indacen-1-yl)-piperidine-1-carbonyl]-pyrrolidine-1 carboxylic acid tert-butyl ester] | 363 nM | 1820 nM | 198 nM | 3400 nM |  | 
24 | CC1(C(=O)N2CCC(n3cnc4cnc5[nH]ccc5c43)CC2)CCCN1 (racemic) [Example 251] | 269 nM | 3450 nM | 216 nM | 2040 nM |  | 
25 | CC(O)c1nc2cnc3[nH]ccc3c2n1C1CCNCC1 (racemic) [Example 291] | 854 nM | 339 nM | 10.2 nM | 731 nM |  | 
26 | CC(O)c1nc2cnc3[nH]ccc3c2n1C1CCN(Cc2cccnc2)CC1 (racemic) [Example 292, 1-[1-(1-Pyridin-3-ylmethyl-piperidin-4-yl)-1,6-dihydro-1,3,5,6-tetraaza-as-indacen-2-yl]-ethanol] | 26.5 nM | 218 nM | 2.92 nM | 7.9 nM |  | 
27 | NC1CCC(n2cnc3cnc4[nH]ccc4c32)C1 (racemic) [Example 294, 3-(6H-1,3,5,6-Tetraaza-as-indacen-1-yl)-cyclopentylamine] | 176 nM | 380 nM | 37.6 nM | 151 nM |  | 
28 | N#CCCNC1CCC(n2cnc3cnc4[nH]ccc4c32)C1 (racemic) [Example 300, 3-[3-(6H-1,3,5,6-Tetraaza-as-indacen-1-yl)-cyclopentylamino]-propionitrile] | 18.3 nM | 65.9 nM | 7.81 nM | 28.8 nM |  | 
29 | CC(CC#N)N1CCC(n2cnc3cnc4[nH]ccc4c32)CC1 (racemic) [Example 305, 3-[4-(6H-1,3,5,6-Tetraaza-as-indacen-1-yl)-piperidin-1-yl]-butyronitrile] | 0.93 nM | 3.7 nM | 0.78 nM | 17 nM |  | 
